In one data set the test system is horse liver ALDH. As to conditions: literature (Feldman and Weiner 1972); cited from earlier work.
The conditions of data set [1]: oral. How it is done: The subject was a person, 154 kg, with no known abnormalities of ethanol metabolism. Experiments were conducted after an overnight fast. 1,1-Dideuterioethanol, 99 atom % D (CDN Isotopes; Quebec, Canada) (70 mL) was diluted to 500 mL with orange juice, and the resulting beverage was consumed by the subject over the course of five minutes. The mouth and palate were rinsed with orange juice, and data points were then obtained, in triplicate, every 10 minutes with a commercial breath analyzer (AlcoHAWK™ Pro, Q3 Innovations Inc., Independence, Iowa, U.S.A.) The control experiment employed 175 mL of commercial vodka (80 proof; 40% ethanol) but was otherwise identical.
Each data point in the FIGURE is the average of the three measurements taken at each time point.

A further data set relates to sheep liver ALDH. As to conditions: literature (Hart and Dickinson 1978); cited from earlier work.

The structures appear in SMILES notation. Like-named read-outs stand apart in the source and are kept apart here.

With `[2H]C(=O)CC` [propionaldehyde-1-d], the deuterium isotope effect result with horse liver ALDH is “no isotope effect”.

In the case of `CCO` [ethanol, reference compound], in data set [1] (human, ordinary ethanol (normally)), the “time after ingestion at which peak blood concentrations of ethanol are reached” value lay in the range of 20 to 30 min.

Turning to `[2H]C(C)=O` [acetaldehyde-1-d], the deuterium isotope effect result in the data set on sheep liver ALDH was “no isotope effect”.

As to `[2H]C([2H])(C)O` [deuterated ethanol, 1,1-Dideuterioethanol], in data set [1] (human subject, FIG. 1), the “absorption relative to ethanol having a natural isotopic abundance” value is “substantially retarded”; the “areas under the curves of blood level vs time, deuterated vs ordinary ethanol” value is recorded as “substantially equivalent”; the “rate of clearance relative to ethanol having a natural isotopic abundance” value was “reduced”. In addition, the “time after ingestion at which peak blood concentrations of ethanol are reached” value in data set [1] (human subject, after overnight fast, 70 mL diluted to 500 mL with orange juice) was 60 to 120 min. Moreover, the “reduction of peak blood concentration” value in data set [1] (human subject, relative to non-deuterated ethanol) is given as 15-20%.

The values above are taken from US9732311B2, “Alcoholic compositions having a lowered risk of acetaldehydemia” (Deuteria Beverages, LLC, priority 2009, dated 2017).
